Measurements reported in patent US20220187282A1, “CARDIOMYOCYTE PROLIFERATION” (The Council of the Queensland Institute of Medical Research, priority 2019, published 2022).

Assays:
[1] = test system: mature hCO; assay: RNA-sequencing of mature hCO treated with compounds; format: cell-based, human; conditions: 2 days; for genes regulated (RNA-seq): 3 μM compound 3, 0.3 μM compound 63, 1 μM compound 65
Procedure: For each experiment 15-20 hCOs were pooled, snap frozen and RNA extracted using Trizol (ThermoFisher Scientific), treated with DNAse (Qiagen) and purified using RNeasy Minielute Cleanup Kit (Qiagen). The quality of the RNA was assessed by Fragment Analyzer (Advances Analytical Technologies) and samples with RNA quality number >8.9 were used for library preparation. RNA samples were processed with Illumina TruSeq Stranded mRNA Library prep kit selecting for poly(A) tailed RNA following the manufacturer's recommendations. Libraries were quantified with Qubit HS (ThermoFisher) and Fragment Analyzer (Advances Analytical Technologies) adjusted to the appropriate concentration for sequencing. Indexed libraries were pooled and sequenced at a final concentration of 1.8 pmol/L on an Illumina NextSeq 500 high-output run using paired-end chemistry with 75 bp read length.
The sequencing data was demultiplexed using Illumina bc12fastq2-v2.17. The quality of the reads was assessed thanks to FastQC (https://www.bioinformatics.babraham.ac.uk/projects/fastqc/). The reads were then processed and mapped to the human genome hg38 using the Bcbio-nextgen framework version 1.0.3 (https://github.com/chapmanb/bcbio-nextgen). The aligner used was HISAT2 2.0.5. For sample quality assessment, raw counts were normalised with DESeq2 regularized logarithm function. A principal component analysis (PCA) was performed using R v 3.3.1(Team, 2015) and led to the detection of a batch effect among samples which was corrected using the removeBatchEffect function from Limma v3.30.13. The identification of the differentially expressed genes between treated and non-treated samples was performed using DESeq2 v1.14.1 (Love et al., 2014) in R v 3.3.1 (Team, 2015) using the design ˜Batch+Compound to account for the batch effect directly. A FDR of 0.1 was defined to call for differentially expressed genes. The mechanistic networks in were generated using IPA upstream analysis (QIAGEN Inc., https://www.qiagenbioinformatics.com/products/ingenuity-pathway-analysis). Gene Ontology (GO) annotations enrichment analyses were performed with GOSeq v1.28.0 (Young et al., 2010), were generated in R using ggplot2 (http://ggplot2.tidyverse.org/index.html) and package GOSemSim v2.2.0 (Yu et al., 2010) for term similarities.
In order to determine the biological processes driving the pro-proliferative effects of our hit compounds, we performed RNA-sequencing (RNA-seq) and single organoid quantitative proteomics (FIG. 4A). These analyses were performed on hCOs treated with compounds 3, 63 and 65 at concentrations of 3 μM, 0.3 μM and 1 μM, respectively. RNA-seq for hCO treated with compounds 3 and 65 clustered distinctly in principal component analysis (FIG. 4B) and regulated a total of 239 and 207 genes (FIG. 9A), respectively.

[2] = pharmacokinetic properties in vivo
[3] = test system: mature hCOs; assay: mature hCO, cardiomyocyte proliferation (Ki-67 intensity, Ki-67+ α-actinin cardiomyocytes); format: cell-based, human; conditions: mature hCO; for Ki-67+ cardiomyocytes: 2 days, compound 3 at 3 μM, 63 at 0.3 μM, 65 at 1 μM; for proliferative response (Ki-67 intensity) with 10 μM simvastatin: 1 μM compound 65, 3 μM compound 3 or 10 μM compound 6.28; for proliferation above the optimal concentrations: above 3 μM (compound 3), above 1 μM (compound 65)
Procedure: (§1) hCOs were cultured in CTRL medium for formation for 5 days and then either kept in CTRL medium culture or changed to maturation medium (Mills et al., 2017a) comprising DMEM without glucose, glutamine and phenol red (ThermoFisher Scientific) supplemented with 4% […](without insulin) (ThermoFisher Scientific), 1% GlutaMAX (ThermoFisher Scientific), 200 μM L-ascorbic acid 2-phosphate sesquimagnesium salt hydrate and 1% Penicillin/Streptomycin (ThermoFisher Scientific), 1 mmol/L glucose and 100 μmon palmitic acid (conjugated to bovine serum albumin within B27 by incubating for 2h at 37° C., Sigma) with changes every 2-3 days.
Whole-Mount Immunostaining hCOs were fixed for 60 min with 1% paraformaldehyde (Sigma) at room temperature and washed 3× with PBS, after which they were incubated with primary antibodies (see Star Methods Table) in Blocking Buffer, 5% FBS and 0.2% Triton-X-100 (Sigma) in PBS overnight at 4° C. Cells were then washed in Blocking Buffer 2× for 2 h and subsequently incubated with secondary antibodies (see Star Methods Table) and Hoechst33342 (1:1000) overnight at 4° C. They were washed in Blocking Buffer 2× for 2 h and imaged in situ or mounted on microscope slides using Fluoromount-G (Southern Biotech).
For screening hCOs were imaged using a Leica DMi8 high content imaging microscope for in situ imaging. Custom batch processing files were written in Matlab R2013a (Mathworks) to remove the background, calculate the image intensity, and export the batch data to an Excel (Microsoft) spreadsheet.
For more detailed images an Olympus IX81 confocal microscope was used for mounted hCO imaging. For cell cycle analysis experiments 3 random fields of view were imaged and manually quantified for proliferation. These were added together to calculate the percentage of hPSC-CM proliferation in each hCO.
Hits were next validated in mature hCOs using a targeted concentration range based on their active concentrations in the initial immature hCO screen (FIG. 3A). Proliferation markers were quantified using high magnification confocal imaging as we found flow cytometry to be inaccurate in hCO (data not shown). Compounds 3, 63 and 65 had no impact on contractile force (FIG. 3B) at concentrations of 3 μM, 0.3 μM and 1 μM, respectively. […] The effects of both compound 3 and compound 65 were reversible, with proliferation ceasing within 5 days of compound withdrawal (FIG. 8B). Therefore, compound 3 (FIG. 3G) and compound 65 (Goldberg et al., 2009) (FIG. 3H) are both capable of inducing bona fide cardiomyocyte proliferation in mature hCOs without adversely affecting contractile properties.

[4] = test system: mature hCOs; assay: mature hCO, force of contraction; format: cell-based, human; conditions: 2 days, compound 3 at 3 μM, 63 at 0.3 μM, 65 at 1 μM
Procedure: as §1
The pole deflection was used to approximate the force of contraction as per (Mills et al., 2017a). A Leica DMi8 inverted high content Imager was used to capture a 10 s time-lapse of each hCO contracting in real time at 37° C. […]
Hits were next validated in mature hCOs using a targeted concentration range based on their active concentrations in the initial immature hCO screen (FIG. 3A). Proliferation markers were quantified using high magnification confocal imaging as we found flow cytometry to be inaccurate in hCO (data not shown). […]

SMILES: Cc1ccc(NC(=O)c2ccnc(N3CCOCC3)c2)cc1Nc1ccnc(N2CC(C)OC(C)C2)n1 (stereo not shown) [compound 3]
- network significantly regulated (network analysis of RNA-seq) [1]: MAPK14 (p38α) network
- transcription of cell cycle controllers PLK1, CCNB2, CCND1, CCNA2 and FOXM1 ([1]; 3 μM): upregulated
- genes regulated (RNA-seq) [1]: 239 genes
- pharmacokinetic properties [2]: poor
- Ki-67+ cardiomyocytes with 10 μM simvastatin ([3]; 3 μM compound 3): abolished
- Ki-67+ cardiomyocytes [3]: increased
- proliferative response (Ki-67 intensity) with 10 μM simvastatin [3]: abolished
- proliferation above the optimal concentrations [3]: no further increase
- contractile force [4]: no impact

SMILES: Cc1cc(Oc2ccnc(Nc3ccc(S(N)(=O)=O)cc3)c2)c(-c2ccccn2)nc1C [compound 65]
- network significantly regulated (network analysis of RNA-seq) [1]: TGFβ receptor (TGFβR) and bone morphogenic protein receptor (BMPR) networks
- mevalonate pathway enzymes SQLE, HMGCS1 and CYP51A1 ([1]; 1 μM): activated
- networks regulated based on RNA-seq data (gene ontologies) ([1]; 1 μM): an extracellular matrix network and a cholesterol biosynthesis network
- transcription of CDKN2B (p15) ([1]; 1 μM): inhibited
- genes regulated (RNA-seq) [1]: 207 genes
- pharmacokinetic properties [2]: poor
- Ki-67+ cardiomyocytes [3]: increased
- proliferative response (Ki-67 intensity) with 10 μM simvastatin [3]: abolished
- proliferation above the optimal concentrations [3]: no further increase
- contractile force [4]: no impact
